According to patent US7473790B2 (Pfizer Inc., priority 2003, dated 2009):

Each compound was assayed against T1, HCV polymerase (Hepatitis C virus genotype 1b, UniProt P26663) (assay: HCV polymerase primer/template-directed transcription assay (32P-GTP incorporation, filter binding)). Conditions: recombinant HCV polymerase; 30 minutes at 30° C.; concentration giving 50% inhibition of polymerase-directed transcription; read-out: IC50.
T1 construct: 2.5 pmoles (0.15 μg) HCV polymerase protein in a final volume of 75 μL
T1 sequence (P26663 2420-3010): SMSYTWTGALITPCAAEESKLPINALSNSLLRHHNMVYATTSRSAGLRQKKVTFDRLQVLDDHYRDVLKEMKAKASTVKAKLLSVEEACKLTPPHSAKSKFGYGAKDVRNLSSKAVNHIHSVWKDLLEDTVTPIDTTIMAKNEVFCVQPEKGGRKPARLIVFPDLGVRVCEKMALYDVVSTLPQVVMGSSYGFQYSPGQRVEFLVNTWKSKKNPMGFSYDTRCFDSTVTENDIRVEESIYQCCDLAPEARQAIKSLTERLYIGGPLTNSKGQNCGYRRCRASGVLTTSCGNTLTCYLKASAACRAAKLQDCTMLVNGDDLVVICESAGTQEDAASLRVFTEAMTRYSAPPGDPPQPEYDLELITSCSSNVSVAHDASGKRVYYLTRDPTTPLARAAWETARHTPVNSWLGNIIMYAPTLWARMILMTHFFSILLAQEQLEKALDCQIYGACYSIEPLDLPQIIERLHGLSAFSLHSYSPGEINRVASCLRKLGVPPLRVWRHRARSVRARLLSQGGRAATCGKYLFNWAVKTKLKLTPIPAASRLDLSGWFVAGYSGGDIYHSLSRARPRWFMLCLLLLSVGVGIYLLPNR
Assay type: biochemical
Summary of the method: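 Recombinant genotype 1b polymerase (30 nM) extended biotin-dG12 primer on poly(rC)300 template with 1 μM GTP plus α-32P-GTP, pH 7.2, 10 mM MgCl2, 30 min at 30° C, 1% DMSO final. Products captured on DE filters and counted. IC50 fitted from triplicate cpm, with a tight-binding correction applied below 200 nM.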

Going from `COc1cc(OC)c(CCC2(C3CCCC3)CC(O)=C(Cc3nc4nc(C)cc(C)n4n3)C(=O)O2)cc1Cl` (centres unmarked) [B(52), 6-[2-(5-chloro-2,4-dimethoxyphenyl)ethyl]-6-cyclopentyl-3-[(5,7-dimethyl[1,2,4]triazolo[1,5-a]pyrimidin-2-yl)methyl]dihydro-2H-pyran-2,4(3H)-dione] to `COc1cc(OC)c(CCC2(C3CCCC3)CC(O)=C(Cc3nc(C)nn3C)C(=O)O2)cc1Cl` (centres unmarked) [B(71), 6-[2-(5-Chloro-2,4-dimethoxyphenyl)ethyl]-6-cyclopentyl-3-[(1,3-dimethyl-1H-1,2,4-triazol-5-yl)methyl]-4-hydroxy-5,6-dihydro-2H-pyran-2-one], the IC50 falls from 170 nM to 80 nM (2.1-fold). The second is the more potent here.

Compared with `COc1ccc(CCC2(C3CCCC3)CC(O)=C(Cc3nc(C)nn3C)C(=O)O2)cc1Cl` (centres unmarked) [B(53), 6-[2-(Chloro-4-methoxyphenyl)ethyl]-6-cyclopentyl-3-[(1,3-dimethyl-1H-1,2,4-triazol-5-yl)methyl]-4-hydroxy-5,6-dihydro-2H-pyran-2-one], `Cc1nc(CC2=C(O)CC(CCc3ccc(OC(F)F)c(Cl)c3)(C3CCCC3)OC2=O)n(C)n1` (centres unmarked) [B(74), 6-{2-[3-Chloro-4-(difluoromethoxy)phenyl]ethyl}-6-cyclopentyl-3-[(1,3-dimethyl-1H-1,2,4-triazol-5-yl)methyl]-4-hydroxy-5,6-dihydro-2H-pyran-2-one] is 9.7-fold higher in IC50: 350 nM for the first, 3400 nM for the second. The first is the more potent here.

First: COc1ccc(CCC2(C3CCCC3)CC(O)=C(Cc3nc(C)cc(=O)[nH]3)C(=O)O2)cc1Cl (centres unmarked) [B(54), 2-({6-[-(3-chloro-4-methoxyphenyl)ethyl]-6-cyclopentyl-4-hydroxy-2-oxo-5,6-dihydro-2H-pyran-3-yl}methyl)-6-methylpyrimidin-4(3H)-one]
Second: COc1cc(OC)c(CCC2(C3CCCC3)CC(O)=C(Cc3nc(C)cc(=O)[nH]3)C(=O)O2)cc1Cl (centres unmarked) [B(68), 2-({6-[2-(5-Chloro-2,4-dimethoxyphenyl)ethyl]-6-cyclopentyl-4-hydroxy-2-oxo-5,6-dihydro-2H-pyran-3-yl}methyl)-6-methylpyrimidin-4(3H)-one]
The IC50 of the first is 3-fold higher: 300 nM for the first, 100 nM for the second.

Going from `COc1ccc(CCC2(C3CCCC3)CC(O)=C(Cc3nc4ccccc4c(=O)[nH]3)C(=O)O2)cc1Cl` (centres unmarked) [B(55), 2-({6-[2-(3-Chloro-4-methoxyphenyl)ethyl]-6-cyclopentyl-4-hydroxy-2-oxo-5,6-dihydro-2H-pyran-3-yl}methyl)quinazolin-4(3H)-one] to `COc1ccc(CCC2(C3CCCC3)CC(O)=C(Cc3nc4ccsc4c(=O)[nH]3)C(=O)O2)cc1Cl` (centres unmarked) [B(56), 2-({6-[2-(3-Chloro-4-methoxyphenyl)ethyl]-6-cyclopentyl-4-hydroxy-2-oxo-5,6-dihydro-2H-pyran-3-yl}methyl)thieno[3,2-d]pyrimidin-4(3H)-one], the IC50 falls from 150 nM to 100 nM (1.5-fold). The second is the more potent here.

Going from `COc1ccc(CCC2(C3CCCC3)CC(O)=C(Cc3nc4cc(OC)c(OC)cc4c(=O)[nH]3)C(=O)O2)cc1Cl` (centres unmarked) [B(57), 2-({6-[2-(3-chloro-4-methoxyphenyl)ethyl]-6-cyclopentyl-4-hydroxy-2-oxo-5,6-dihydro-2H-pyran-3-yl}methyl)-6,7-dimethoxyquinazolin-4(3H)-one] to `COc1cc(OC)c(CCC2(C3CCCC3)CC(O)=C(Cc3nc4cc(OC)c(OC)cc4c(=O)[nH]3)C(=O)O2)cc1Cl` (centres unmarked) [B(63), 2-({6-[2-(5-Chloro-2,4-dimethoxyphenyl)ethyl]-6-cyclopentyl-4-hydroxy-2-oxo-5,6-dihydro-2H-pyran-3-yl}methyl)-6,7-dimethoxyquinazolin-4(3H)-one], the IC50 falls from 50 nM to 16 nM (3.1-fold). The second is the more potent here.

First: Cc1csc2nc(CC3=C(O)CC(CCc4ccc(OCC5CC5)c(Cl)c4)(C4CCCC4)OC3=O)cc(=O)n12 (centres unmarked) [B(58), 7-[(6-{2-[3-Chloro-4-(cyclopropylmethoxy)phenyl]ethyl}-6-cyclopentyl-4-hydroxy-2-oxo-5,6-dihydro-2H-pyran-3-yl)methyl]-3-methyl-5H-[1,3]thiazolo[3,2-a]pyrimidin-5-one]
Second: COc1ccc(CCC2(C3CCCC3)CC(O)=C(Cc3cc(=O)n4c(C)csc4n3)C(=O)O2)cc1 (centres unmarked) [B(61), 7-({6-Cyclopentyl-4-hydroxy-6-[2-(4-methoxyphenyl)ethyl]-2-oxo-5,6-dihydro-2H-pyran-3-yl}methyl)-3-methyl-5H-[1,3]thiazolo[3,2-a]pyrimidin-5-one]
The IC50 of the first is 52-fold higher: 6200 nM for the first, 120 nM for the second.

Going from `COc1cc(OC)c(CCC2(C3CCCC3)CC(O)=C(Cc3cc(=O)n4c(C)csc4n3)C(=O)O2)cc1Cl` (centres unmarked) [B(59), 7-({6-[2-(5-Chloro-2,4-dimethoxyphenyl)ethyl]-6-cyclopentyl-4-hydroxy-2-oxo-5,6-dihydro-2H-pyran-3-yl}methyl)-3-methyl-5H-[1,3]thiazolo[3,2-a]pyrimidin-5-one] to `COc1cc(OC)c(CCC2(C3CCCC3)CC(O)=C(Cc3nc4ccsc4c(=O)[nH]3)C(=O)O2)cc1Cl` (centres unmarked) [B(64), 2-({6-[2-(5-Chloro-2,4-dimethoxyphenyl)ethyl]-6-cyclopentyl-4-hydroxy-2-oxo-5,6-dihydro-2H-pyran-3-yl}methyl)thieno[3,2-d]pyrimidin-4(3H)-one], the IC50 rises from 6 nM to 33 nM (5.5-fold).

First: COC(=O)Nc1cc(CC2=C(O)CC(CCc3ccc(OC)cc3)(C3CCCC3)OC2=O)on1 (centres unmarked) [B(60), Methyl 5-({6-cyclopentyl-4-hydroxy-6-[2-(4-methoxyphenyl)ethyl]-2-oxo-5,6-dihydro-2H-pyran-3-yl}methyl)isoxazol-3-ylcarbamate]
Second: COC(=O)Nc1cc(CC2=C(O)CC(CCc3ccc(C(F)F)c(F)c3)(C3CCCC3)OC2=O)on1 (centres unmarked) [B(72), Methyl 5-[(6-cyclopentyl-6-{2-[4-(difluoromethyl)-3-fluorophenyl]ethyl}-4-hydroxy-2-oxo-5,6-dihydro-2H-pyran-3-yl)methyl]isoxazol-3-ylcarbamate]
The IC50 of the first is 2.6-fold lower: 540 nM for the first, 1400 nM for the second. The first is the more potent here.

Compared with `CCc1noc(CC2=C(O)CC(CCc3cc(Cl)c(OC)cc3OC)(C3CCCC3)OC2=O)n1` (centres unmarked) [B(62), 6-[2-(5-Chloro-2,4-dimethoxyphenyl)ethyl]-6-cyclopentyl-3-[(3-ethyl-1,2,4-oxadiazol-5-yl)methyl]-4-hydroxy-5,6-dihydro-2H-pyran-2-one], `COc1cc(OC)c(CCC2(C3CCCC3)CC(O)=C(Cc3nc(-c4ccccn4)no3)C(=O)O2)cc1Cl` (centres unmarked) [B(73), 6-[2-(5-Chloro-2,4-dimethoxyphenyl)ethyl]-6-cyclopentyl-4-hydroxy-3-[(3-pyridin-2-yl-1,2,4-oxadiazol-5-yl)methyl]-5,6-dihydro-2H-pyran-2-one] is 3.2-fold lower in IC50: 200 nM for the first, 62 nM for the second.

First: COc1cc(OC)c(CCC2(C3CCCC3)CC(O)=C(Cc3nc4ccccc4c(=O)[nH]3)C(=O)O2)cc1Cl (centres unmarked) [B(65), 2-({6-[2-(5-Chloro-2,4-dimethoxyphenyl)ethyl]-6-cyclopentyl-4-hydroxy-2-oxo-5,6-dihydro-2H-pyran-3-yl}methyl)quinazolin-4(3H)-one]
Second: COc1ccc(CCC2(C3CCCC3)CC(O)=C(Cc3cc(=O)[nH]c(-c4ccccn4)n3)C(=O)O2)cc1 (centres unmarked) [B(66), 6-({6-Cyclopentyl-4-hydroxy-6-[2-(4-methoxyphenyl)ethyl]-2-oxo-5,6-dihydro-2H-pyran-3-yl}methyl)-2-pyridin-2-ylpyrimidin-4(3H)-one]
The IC50 of the first is 2-fold lower: 110 nM for the first, 220 nM for the second. The first is the more potent here.

First: O=C1OC(CCc2ccc(OCc3ccccc3)cc2)(C2CCCC2)CC(O)=C1Cc1cc(=O)[nH]c(C2CC2)n1 (centres unmarked) [B(67), 6-[(6-{2-[4-(Benzyloxy)phenyl]ethyl}-6-cyclopentyl-4-hydroxy-2-oxo-5,6-dihydro-2H-pyran-3-yl)methyl]-2-cyclopropylpyrimidin-4(3H)-one]
Second: COc1ccc(CCC2(C3CCCC3)CC(=O)C(Cc3ccccc3)C(=O)O2)cc1 (centres unmarked) [B(77), 3-benzyl-6-cyclopentyl-6-[2-(4-methoxyphenyl)ethyl]dihydro-2H-pyran-2,4(3H)-dione]
The IC50 of the first is 1.7-fold lower: 3200 nM for the first, 5500 nM for the second.

Going from `Cc1nc(CC2=C(O)CC(CCc3ccc(C(F)F)c(F)c3)(C3CCCC3)OC2=O)n(C)n1` (centres unmarked) [B(69), 6-Cyclopentyl-6-{2-[4-(difluoromethyl)-3-fluorophenyl]ethyl}-3-[(1,3-dimethyl-1H-1,2,4-triazol-5-yl)methyl]-4-hydroxy-5,6-dihydro-2H-pyran-2-one] to `Cc1nc(CC2=C(O)CC(CCc3ccc(OCC4CC4)c(Cl)c3)(C3CCCC3)OC2=O)n(C)n1` (centres unmarked) [B(70), 6-{2-[3-Chloro-4-(cyclopropylmethoxy)phenyl]ethyl}-6-cyclopentyl-3-[(1.3-dimethyl-1H-1,2,4-triazol-5-yl)methyl]-4-hydroxy-5,6-dihydro-2H-pyran-2-one], the IC50 falls from 800 nM to 240 nM (3.3-fold).

Compared with `Cc1cc(C)n2nc(CC3=C(O)CC(CCc4ccc(C(C)(C)C#N)c(F)c4)(C4CCCC4)OC3=O)nc2n1` (centres unmarked) [B(75), 2-(4-{2-[2-Cyclopentyl-5-(5,7-dimethyl-[1,2,4]triazolo[1,5-a]pyrimidin-2-ylmethyl)-4-hydroxy-6-oxo-3,6-dihydro-2H-pyran-2-yl]-ethyl}-2-fluoro-phenyl)-2-methyl-propionitrile], `Cc1cc(C)n2nc(CC3=C(O)CC(CCc4ccc(C5(C#N)CC5)c(F)c4)(C4CCCC4)OC3=O)nc2n1` (centres unmarked) [B(76), 1-(4-{2-[2-Cyclopentyl-5-(5,7-dimethyl-[1,2,4]triazolo[1,5-a]pyrimidin-2-ylmethyl)-4-hydroxy-6-oxo-3,6-dihydro-2H-pyran-2-yl]-ethyl}-2-fluoro-phenyl)-cyclopropanecarbonitrile] is 3-fold lower in IC50: 3 nM for the first, 1 nM for the second.

Compared with `COc1ccc(CCC2(C3CCCC3)CC(=O)C(Cc3ccccc3)C(=O)O2)cc1Cl` (centres unmarked) [B(78), 3-benzyl-6-[2-(3-chloro-4-methoxyphenyl)ethyl]-6-cyclopentyldihydro-2H-pyran-2,4(3H)-dione], `COc1ccc(CCC2(C3CCCC3)CC(=O)C(Cc3cccnc3)C(=O)O2)cc1Cl` (centres unmarked) [B(80), 6-[2-(3-chloro-4-methoxyphenyl)ethyl]-6-cyclopentyl-3-(pyridin-3-ylmethyl)dihydro-2H-pyran-2,4(3H)-dione] is 1.8-fold lower in IC50: 1000 nM for the first, 560 nM for the second. The second is the more potent here.

For `C=CCC1C(=O)CC(CCc2ccc(OC)c(Cl)c2)(C2CCCC2)OC1=O` (centres unmarked) [B(79), 3-allyl-6-[2-(3-chloro-4-methoxyphenyl)ethyl]-6-cyclopentyldihydro-2H-pyran-2,4(3H)-dione], the IC50 was 2400 nM.
